From US20220281831A1, “FUSED-GLUTARIMIDE CRBN LIGANDS AND USES THEREOF” (Kymera Therapeutics, Inc., priority 2019, published 2022) come the findings set out here.

Test [1] has as its target His-tagged CRBN-DDB1 complex (Homo sapiens, UniProt Q96SW2). Put plainly: Time-Resolved Fluorescence Resonance Energy Transfer (TR-FRET / HTRF) CRBN binding assay, displacement of Cy5-labeled thalidomide. As to conditions: His-CRBN-DDB1, Cy5-thalidomide 8 nM, 1 hour room temperature. A general note: Time-resolved FRET reads energy transfer from a long-lived donor to a nearby acceptor.

Test [2] concerns the target CRBN-DDB1 (Homo sapiens, UniProt Q96SW2). Nature of the test: Fluorescence Polarization (FP) CRBN binding assay, probe TM-493 (FAM-BB-100). As to conditions: CRBN-DDB1, TM-493 probe, 60 min room temperature. For orientation: In fluorescence polarisation assays a small probe gives low polarisation when free and higher when bound to something large.

CRBN-DDB1, sequence (Q96SW2 whole entry): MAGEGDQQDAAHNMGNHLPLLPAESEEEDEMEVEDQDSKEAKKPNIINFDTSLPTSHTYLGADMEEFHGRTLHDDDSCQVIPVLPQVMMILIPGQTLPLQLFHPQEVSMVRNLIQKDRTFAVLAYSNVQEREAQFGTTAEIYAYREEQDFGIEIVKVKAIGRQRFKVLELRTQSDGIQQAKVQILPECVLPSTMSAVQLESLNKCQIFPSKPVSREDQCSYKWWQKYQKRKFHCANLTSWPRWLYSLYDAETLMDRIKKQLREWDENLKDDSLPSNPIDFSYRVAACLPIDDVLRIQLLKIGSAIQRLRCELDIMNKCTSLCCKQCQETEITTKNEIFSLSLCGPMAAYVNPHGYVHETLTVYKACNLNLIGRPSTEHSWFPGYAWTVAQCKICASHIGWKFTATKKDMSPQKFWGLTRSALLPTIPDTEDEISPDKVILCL
CRBN-DDB1, sequence (Q16531 whole entry partner): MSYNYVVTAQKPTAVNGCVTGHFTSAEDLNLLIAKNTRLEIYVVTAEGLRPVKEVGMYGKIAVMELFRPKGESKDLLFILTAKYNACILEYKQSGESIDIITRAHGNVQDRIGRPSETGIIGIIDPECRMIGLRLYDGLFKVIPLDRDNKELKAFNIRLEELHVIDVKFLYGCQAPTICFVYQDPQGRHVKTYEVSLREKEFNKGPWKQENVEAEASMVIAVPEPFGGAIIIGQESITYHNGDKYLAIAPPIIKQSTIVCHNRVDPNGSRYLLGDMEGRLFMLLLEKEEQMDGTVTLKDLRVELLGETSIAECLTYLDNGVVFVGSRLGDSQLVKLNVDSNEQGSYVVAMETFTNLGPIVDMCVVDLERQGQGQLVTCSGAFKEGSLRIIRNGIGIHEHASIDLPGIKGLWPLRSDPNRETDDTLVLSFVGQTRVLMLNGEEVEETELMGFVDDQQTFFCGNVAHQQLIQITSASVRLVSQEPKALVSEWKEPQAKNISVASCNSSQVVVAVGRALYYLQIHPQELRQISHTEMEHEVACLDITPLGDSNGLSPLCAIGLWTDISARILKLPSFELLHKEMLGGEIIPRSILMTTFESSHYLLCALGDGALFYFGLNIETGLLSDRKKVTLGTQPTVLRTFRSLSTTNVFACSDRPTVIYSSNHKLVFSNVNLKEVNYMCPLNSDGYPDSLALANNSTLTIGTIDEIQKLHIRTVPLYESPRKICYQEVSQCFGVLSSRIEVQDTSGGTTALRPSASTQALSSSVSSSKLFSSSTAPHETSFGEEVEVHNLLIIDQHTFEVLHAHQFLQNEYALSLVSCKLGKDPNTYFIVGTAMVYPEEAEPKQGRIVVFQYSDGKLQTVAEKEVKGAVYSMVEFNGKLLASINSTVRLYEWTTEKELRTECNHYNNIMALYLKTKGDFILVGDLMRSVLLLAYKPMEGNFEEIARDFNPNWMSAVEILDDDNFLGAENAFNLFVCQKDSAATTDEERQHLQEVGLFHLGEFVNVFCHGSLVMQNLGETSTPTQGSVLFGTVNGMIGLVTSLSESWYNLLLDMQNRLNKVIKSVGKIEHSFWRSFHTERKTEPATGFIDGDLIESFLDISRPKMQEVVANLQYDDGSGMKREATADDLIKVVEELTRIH
His-tagged CRBN-DDB1 complex, sequence (Q96SW2 whole entry): as the sequence (Q96SW2 whole entry) above
His-tagged CRBN-DDB1 complex, sequence (Q16531 whole entry partner): as the sequence (Q16531 whole entry partner) above

In the case of `CC(C)(C)OC(=O)NCCCCCCCC#Cc1cccc(Oc2cccc3c2C(=O)NC(=O)C3)c1` [Compound I-225], the IC50 in test [1] and in test [2] was greater than 100 µM in each case.
Regarding `O=C1Cc2cc(F)ccc2C(=O)N1` [Compound I-73, 6-Fluoro-2,4-dihydroisoquinoline-1,3-dione], the IC50 in test [1] is 10 to 30 µM; in test [2] it was greater than 100 µM.
For `O=C1Cc2cccc(C(=O)N3CCOc4ccccc43)c2C(=O)N1` [Compound I-3, 8-(2,3-Dihydro-1,4-benzoxazine-4-carbonyl)-2,4-dihydroisoquinoline-1,3-dione], in that order: greater than 100 µM and 30 to 100 µM.
The corresponding values for `O=C1Cc2cccc(N3CCCCC3=O)c2C(=O)N1` [Compound I-193] are 10 to 30 µM and 30 to 100 µM.
The corresponding values for `Cc1cccc(CN2C[C@@H]3C(=O)NC(=O)[C@@H]3C2)n1` [Compound I-292] are 10 to 30 µM and greater than 100 µM.
Consider `O=C1C[C@]2(CCc3c([N+](=O)[O-])cccc32)C(=O)N1` [Compound I-196], for which the concentration for half-maximal inhibition (IC50) in test [1] and in test [2] was greater than 100 µM each time.
For the molecule `Nc1cccc2c1C(=O)NC(=O)C2` [Compound I-22, 8-Amino-2,4-dihydroisoquinoline-1,3-dione], the IC50 is greater than 100 µM in test [1] and 10 to 30 µM in test [2].
Regarding `Cc1cccc2c1CC(=O)NC2=O` [Compound I-78], the figures for the concentration for half-maximal inhibition (IC50) in test [1] and in test [2] were 10 to 30 µM and greater than 100 µM, respectively.
The corresponding values for `CC(C)(C)OC(=O)NCCCCCCCCCc1cccc(Oc2cccc3c2C(=O)NC(=O)C3)c1` [Compound I-226] are greater than 100 µM and greater than 100 µM.
For `O=C1CC2(Cc3ccccc3C2)C(=O)N1` [Compound I-186, 1,3-dihydrospiro[indene-2,3′-pyrrolidine]-2′,5′-dione], in that order: 30 to 100 µM and greater than 100 µM.
For `O=C1NC(=O)[C@@H]2CN(C3CCCC3)C[C@H]12` [Compound I-159], in that order: greater than 100 µM and greater than 100 µM.
Take `NCCCC#Cc1cccc(Oc2cccc3c2C(=O)NC(=O)C3)c1` [Compound I-245]: the IC50 was less than 10 µM in test [1] and 10 to 30 µM in test [2].
In the case of `CC(C)(C)OC(=O)NCCCCCCCCCc1ccc(Oc2cccc3c2C(=O)NC(=O)C3)cc1` [Compound I-233], the IC50 in test [1] and in test [2] was greater than 100 µM each time.
Turning to `CC(=O)Nc1ccc2c(c1)C(=O)NC(=O)C2` [Compound I-21], the values for the half-inhibitory concentration (IC50) in test [1] and in test [2] were 30 to 100 µM and 10 to 30 µM, respectively.
Take `O=C1Cc2ccc(Br)cc2C(=O)N1` [Compound I-7, 7-Bromo-2,4-dihydroisoquinoline-1,3-dione]: the IC50 is 30 to 100 µM in test [1] and greater than 100 µM in test [2].

In general, IC50 refers to the concentration that inhibits the measured activity by half.
